pIC50: −log10 of the molar value.

Data set [1] concerns the target Sigma non-opioid intracellular receptor 1 (Rattus norvegicus, UniProt Q9R0C9). Nature of the data set: Inhibition of [3H]pentazocine binding to Opioid receptor sigma 1.
In data set [2] the test system is Rattus norvegicus. Briefly: Tested for the anticonvulsant activity administered 60 min orally before MES induction. Format: functional. To be noted: po, 1 h.
The target in data set [3] is T1, Sodium channel alpha subunits; brain (Types I, II, III) (Rattus norvegicus, UniProt P04775+P04774+P08104). Briefly: Inhibition of [3H]batrachotoxin binding to rat brain sodium channel.
Data set [4] addresses T1, Sodium channel alpha subunits; brain (Types I, II, III). Briefly: Inhibition of [3H]saxitoxin binding to rat brain sodium channel. The data set is classed as tissue-based.
The nature of data set [5]: Protective index (PI) is the ratio of TD50 in the rotarod test over the ED50 in the anticonvulsant test. The data set is classed as functional.
The species named for data set [6] is Mus musculus. Nature of the data set: Toxic dose causing 50% treated mice fall from the rotarod was evaluated. A general note: The rotarod test checks motor coordination on a turning rod.
The nature of data set [7]: Lethal dose in rats. The data set is classed as toxicity. Conditions: rat, in vivo.

Sigma non-opioid intracellular receptor 1, sequence (Q9R0C9 whole entry): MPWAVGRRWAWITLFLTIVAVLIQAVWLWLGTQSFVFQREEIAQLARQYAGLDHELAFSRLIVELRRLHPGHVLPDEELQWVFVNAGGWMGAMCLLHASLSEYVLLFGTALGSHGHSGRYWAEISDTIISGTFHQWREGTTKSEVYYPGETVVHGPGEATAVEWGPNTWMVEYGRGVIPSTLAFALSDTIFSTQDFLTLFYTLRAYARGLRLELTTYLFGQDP

The pIC50 is the IC50 on a negative log10 scale, so that one unit is a factor of ten. The ED50 is the dose that gives a 50% effect, or the effect in half of the subjects. Broadly, the IC50 is the point on the concentration scale where inhibition reaches its midpoint. Read a low IC50 as inhibition by little substance. For orientation: TD50 means the dose at which the toxic effect under study appears in half of the subjects. A lower TD50 goes with greater toxicity. For the molecule `C[C@H](NCc1ccc(OCCCCc2ccccc2)cc1)C(N)=O`, the pIC50 in data set [1] was 6.26. In data set [2], this molecule displayed an ED50 of 12.4 mg/kg. For the same molecule, the IC50 in data set [3] was 1.1 µM; in data set [4], > 300 µM. In data set [5], the PI is 81. The molecule further showed a TD50 in data set [6] of 1000 mg/kg.

Molecule `C[C@H](NCc1ccc(NCc2cccc(F)c2)cc1)C(N)=O` showed a pIC50 in data set [1] of 7.46. The ED50 in data set [2] came to 6.6 mg/kg. The concentration for half-maximal inhibition (IC50) was 13.9 µM in data set [3] and > 300 µM in data set [4]. For the same molecule, the PI in data set [5] amounted to 88.3. In data set [6], this molecule displayed a TD50 of 583 mg/kg.

For `C[C@@H](NCc1ccc(OCCCc2ccccc2)cc1)C(N)=O`, the pIC50 in data set [1] was 6.55. In data set [2], this molecule returned an ED50 of 12.6 mg/kg. Moreover, the half-inhibitory concentration (IC50) was 7.8 µM in data set [3] and > 300 µM in data set [4]. In data set [5], the PI stood at 102. Moreover, the TD50 in data set [6] is 1280 mg/kg.

In data set [1], `C[C@H](NCc1ccc(OCCCc2ccccc2)cc1)C(N)=O` had a pIC50 of 7.71. In addition, it took a dose of 6.7 mg/kg to reach the 50% effect level in data set [2] (ED50). Moreover, the IC50 in data set [3] is 13.2 µM; in data set [4] it was > 300 µM. In addition, in data set [5], the PI worked out at 87.2. Moreover, in data set [6], the TD50 came out at 584 mg/kg.

As a reminder, the LD50 is the dose expected to kill half of the subjects tested. High values mean a less toxic substance, low ones a more toxic substance. In the case of `COc1ccc2c(c1)[C@]13CCCC[C@@H]1[C@H](C2)N(C)CC3` [DEXTROMETHORPHAN], it took a dose of 12.9 mg/kg to reach the 50% effect level in data set [2] (ED50). Moreover, the 50% inhibitory concentration (IC50) was 1.3 µM in data set [3] and > 100 µM in data set [4]. The LD50 in data set [7] was determined as 234 mg/kg.

As to `C[C@H](NCc1ccc(OCc2ccccc2)cc1)C(=O)O`, in data set [2], the ED50 was > 100 mg/kg. Further, the IC50 is 150.8 µM in data set [3] and > 300 µM in data set [4].

On to `C[C@@H](NCc1ccc(NCc2cccc(F)c2)cc1)C(N)=O`, for which, in data set [1], the pIC50 is 6.55. This molecule also returned a median effective dose (ED50) in data set [2] of 1.7 mg/kg. For the same molecule, the figures for the IC50 in data set [3] and in data set [4] were 11.3 µM and > 300 µM, respectively. In addition, the PI in data set [5] is 160. In data set [6], this molecule came in with a TD50 of 272 mg/kg.

Take `CS(=O)(=O)O.C[C@H](NCc1ccc(OCc2cccc(F)c2)cc1)C(N)=O` [SAFINAMIDE MESYLATE]: the values for the pIC50 in data set [1] and in data set [3] (read-out: IC50) were 7.71 and 5.09, respectively. Moreover, the ED50 in data set [2] was determined as 8 mg/kg. The IC50 in data set [4] is > 300 µM. In data set [5], the PI was 78.2. For the same molecule, the TD50 in data set [6] came out at 626 mg/kg.

`COc1ccc(CN[C@@H](C)C(N)=O)cc1`: in data set [1], the pIC50 was < 5.00. Also, the ED50 in data set [2] is > 100 mg/kg. The results for the IC50 in data set [3] and in data set [4] were 145.8 µM and > 300 µM, respectively.

Take `CNC(=O)[C@@H](CO)NCc1ccc(OCc2cccc(F)c2)cc1`: in data set [1], the pIC50 is 5.18. This molecule gave an ED50 in data set [2] of 6.4 mg/kg. Besides, the values for the IC50 in data set [3] and in data set [4] were 17.9 µM and > 300 µM, respectively. For the same molecule, the PI in data set [5] was determined as 92.6. In addition, the TD50 in data set [6] was determined as 593 mg/kg.

`CNC(=O)[C@H](CO)NCc1ccc(OCc2cccc(F)c2)cc1` showed a pIC50 in data set [1] of 6.23. The 50% effect level in data set [2] (ED50) was put at a dose of 13 mg/kg. Further, the IC50 in data set [3] is 26.3 µM; in data set [4] it was > 300 µM. The PI in data set [5] was 70.4. The same molecule yielded a TD50 in data set [6] of 915 mg/kg.

With `Nc1nnc(-c2cccc(Cl)c2Cl)c(N)n1` [LAMOTRIGINE], the pIC50 in data set [1] was < 5.00. Also, the ED50 in data set [2] was found to be 2.2 mg/kg. Further, the IC50 is 185.9 µM in data set [3] and > 100 µM in data set [4]. Besides, the PI in data set [5] was 38.2. Besides, the TD50 in data set [6] came out at 84 mg/kg.

`C[C@@H](NCc1ccc(OCc2cccc(F)c2)cc1)C(N)=O` showed a pIC50 in data set [1] of 6.55. This molecule also showed an ED50 in data set [2] of 7.2 mg/kg. Moreover, the IC50 was 8.5 µM in data set [3] and > 300 µM in data set [4]. For the same molecule, in data set [5], the PI is 87.8. The molecule also yielded a TD50 in data set [6] of 584 mg/kg.

In the case of `C[C@H](NCc1ccc(OCCCCCc2ccccc2)cc1)C(N)=O`, the pIC50 in data set [1] is < 5.00. The ED50 in data set [2] is 12.5 mg/kg. Besides, the IC50 is 1.4 µM in data set [3] and > 300 µM in data set [4]. Further, the PI in data set [5] turned out to be 80.8. The molecule further came in with a TD50 in data set [6] of 1010 mg/kg.

Values taken from ChEMBL document CHEMBL1132100, “Sodium channel activity and sigma binding of 2-aminopropanamide anticonvulsants” (Bioorg Med Chem Lett, 1999).
